Laboratory results published in patent US20260355144A1, “METAP2 INHIBITORS FOR THE TREATMENT OF PULMONARY FIBROSIS” (SynDevRx , Inc., priority 2022, published 2026).

What was measured:
Format in all cases: in vivo, C57BL/6 mice
[1] = system: aged, male, bleomycin-treated mice; assay: Wet lung weight (edema), Example 1; details: FIG. 6, day 21, compared to BLM-treated mice; SDX-7320 8 mg/kg SC Q4D; nintedanib 50 mg/kg PO QD; pirfenidone 100 mg/kg PO BID
Procedure: (§1) Treatment: seven groups of mice were treated as put forth in Table A. Mice in groups 2-7 were challenged with bleomycin solution on Day 0 of the study by a single oropharyngeal installation of bleomycin solution such that the mice were given 1.5 U/kg based on the average body weight of the animals. On day 6 of the study, all mice were randomized based on body weight loss plus their PenH value (see below) as measured on Day 6.
(§2) Mice in treatment groups 1 and 2 were administered a vehicle control subcutaneously once every 4 days (Q4D) from day 7 to day 21. Mice in treatment group 3 were administered SDX-7320 subcutaneously Q4D from day 7 to day 21 at a dose of 8 mg/kg (i.e., 4 doses). Mice in treatment group 4 were administered pirfenidone orally (PO) twice a day (BID) from day 7 to day 21 at a dose of 100 mg/kg. Mice in treatment group 5 were administered nintedanib orally (PO) once a day (QD) from day 7 to day 21 at a dose of 50 mg/kg. […]
Lung weight: Lungs were harvested, and the wet lung weights (signifying edema) were recorded.
Statistical Analysis: All parameters were analyzed in the same manner and results were expressed as means±SEM with Graph Pad Prism Software version 8.0 (San Diego, CA, USA). […]

[2] = system: aged, male, bleomycin-treated mice; assay: Respiratory function by whole-body plethysmography (PenH, respiratory rate), Example 1; details: FIG. 3, day 20 post BLM; SDX-7320 8 mg/kg SC Q4D; nintedanib 50 mg/kg PO QD; pirfenidone 100 mg/kg PO BID
Procedure: Animals: Aged, male C57BL/6 mice from Jackson Laboratories, 72 weeks old at the time of randomization were used in this study.
Mice in treatment groups 1 and 2 were administered a vehicle control subcutaneously once every 4 days (Q4D) from day 7 to day 21. […]
Respiratory Function: Respiratory function of the mice were measured using plethysmography. […] After the acclimatization period, the baseline functional respiratory parameters were measured by the whole-body plethysmograph (VivoFlow by SCIREQ) on Day 6 (before treatment introduction and process to the randomization), Days 13 and 20, post-BLM administration. […] The functional respiratory parameters analyzed include respiratory rate and PenH (pulmonary congestion index). […]

[3] = system: aged, male, bleomycin-treated mice; assay: Automated histopathological analysis of lung samples, Example 1
Procedure: as §1
as §2, with “mg/kg.” for “mg/kg. Mice in treatment group 5 were administered nintedanib orally (PO) once a day (QD) from day 7 to day 21 at a dose of 50 mg/kg.”
Histopathological Analysis: Automatic quantification of morphological features of pulmonary fibrosis were performed using MorphoQuant™ (Biocellvia, France), an automated AI-based digital pathology software for quantification, from the digitalized images (scans) of PSR-stained or antibody labeled lung sections. MorphoQuant™ uses principles of morphometric analysis to detect and quantify specific lung disease features from histological slides (Gilhodes et al. 2017; Michaudel, Fauconnier, et al. 2018). […]

Row | Structure (SMILES) | lung weight (wet) [1] | pulmonary congestion (PenH) [2] | deposition of collagen in lung tissue ([3]; FIG. 22 and Table C, COL1A1, following exposure to bleomycin, SDX-7320 8 mg/kg SC Q4D, nintedanib 50 mg/kg PO QD) | COL1A1 area (%) ([3]; Table C/FIG. 22, aged male mice, bleomycin 1.5 U/kg oropharyngeal, treatment day 7 to 21, SDX 8 mg/kg SC Q4D, Nin 50 mg/kg PO QD, ab270993 antibody labeled)
1 | Cc1ccc(=O)n(-c2ccccc2)c1 [pirfenidone, 5-Methyl-1-phenyl-1H-pyridin-2-one] | did not significantly reduce lung weight | – | – | –
2 | COC(=O)c1ccc2c(c1)NC(=O)/C2=C(\Nc1ccc(N(C)C(=O)CN2CCN(C)CC2)cc1)c1ccccc1 [nintedanib, Methyl (Z)-3-[[[4-[N-methyl-2-(4-methylpiperazin-1-yl)acetamido]phenyl]amino](phenyl)methylene]-2-oxoindoline-6-carboxylate] | did not significantly reduce lung weight | increased the pulmonary congestion | almost no activity | 1.387 ± 1.638
